Tests used:
SERT = target: T1, SERT (Rattus norvegicus, UniProt P31652); assay: Ex vivo transporter occupancy in rat spinal cord (PK/PD model), SERT
T1 construct: Spinal cords were dissected for ex vivo transporter occupancy and PK assessments from the same animals; from tissue; host or cells: lumbar spinal cord of orally dosed male Sprague Dawley rats
Protocol: Adult male Sprague Dawley rats (Charles River) were housed under controlled laboratory conditions (temperature at 21±1° C.) on a 12:12 hour light-dark cycle. Animals were given free access to food and water upon arrival to the facility and animals were acclimatized to their holding room for at least 48 hours. Animals were fasted but allowed free access to water for 15-18 hours prior to dosing.
Rats (n=6/timepoint/dose level) received a single oral dose of 4-[2-(2,4,6-trifluorophenoxymethyl)phenyl]piperidine (0.3, 1, 5, 10, 30, and 60 mg/kg) and were euthanized by decapitation at specified time points (0.5, 2, 4, 6, and 8 hr for 5 mg/kg dose level; 2 hr for 0.3, 1, 10, 30, and 60 mg/kg dose levels) post-administration. Spinal cords were dissected for ex vivo transporter occupancy and PK assessments from the same animals. The spinal cord was harvested by hydraulic extrusion using phosphate-buffered saline, and the lumbar segment dissected and frozen on dry ice. The remaining spinal cord segments were collected and homogenized in water (25% w/w) for PK analysis. All samples were stored at −80° C. until analysis.
A kinetic radioligand binding assay was used to determine NET and SERT occupancy in rat spinal cord, as described previously in Bourdet et al., J. Pharm. Exp. Ther. (2012) 341:137-145. […] One- and two-compartment PK models with first-order absorption and elimination were evaluated. […]

rat native NET [1] = assay: [3H]-NE uptake inhibition in rat cortical synaptosomes; assay type: biochemical
From the text: (§1) The in vitro pharmacology of 4-[2-(2,4,6-trifluorophenoxymethyl)phenyl]-piperidine at human recombinant and rat native monoamine transporters was characterized as described in Smith et al., Inter. J. Neuropsychopharmcol. (2015) 1-11; and Tsuruda et al., J. Pharmacol. Toxicol. Meth. (2010) 61:192-204. See also, e.g., U.S. Pat. No. 8,304,432 B2 and U.S. Pat. No. 8,304,433 B2. Radioligands were sourced commercially (Perkin Elmer LifeSciences or GE Healthcare Life Sciences).
(§2) Briefly, membranes prepared from HEK293 (Human Embryonic Kidney 293) or CHO-K1 (Chinese Hamster Ovary-K1) cells stably transfected with human recombinant SERT (HEK293-hSERT), NET (HEK293-hNET), or DAT (CHO-KT-hDAT) were incubated for 1 hr at 22° C. in the absence, or presence, of 4-[2-(2,4,6-trifluorophenoxymethyl)phenyl]piperidine and [^3H]-citalopram (1.0 nM) for SERT, [^3H]-nisoxetine (2.0 nM) for NET, and [^3H]-WIN35428 (3.0 nM) for DAT in 50 mM Tris-HCl, 120 mM NaCl, 5 mM KCl, 0.025% BSA, 100 μM ascorbic acid, pH 7.4. Rat cortical membrane preparations were incubated with [^3H]-citalopram (2.0 nM) for SERT or [3H]-nisoxetine (4.0 nM) for NET for 1 hr at 22° C. […] Binding and uptake assays were terminated by rapid filtration and radioactivity determined by liquid scintillation spectroscopy.

human recombinant NET = target: T2, human recombinant NET (Homo sapiens, UniProt P23975); assay: [3H]-NE neurotransmitter uptake inhibition in HEK293-hNET cells; assay type: cell-based; settings: human transporters
T2 construct: expressed in transfected cells; host or cells: HEK293
T2 sequence (P23975 whole entry): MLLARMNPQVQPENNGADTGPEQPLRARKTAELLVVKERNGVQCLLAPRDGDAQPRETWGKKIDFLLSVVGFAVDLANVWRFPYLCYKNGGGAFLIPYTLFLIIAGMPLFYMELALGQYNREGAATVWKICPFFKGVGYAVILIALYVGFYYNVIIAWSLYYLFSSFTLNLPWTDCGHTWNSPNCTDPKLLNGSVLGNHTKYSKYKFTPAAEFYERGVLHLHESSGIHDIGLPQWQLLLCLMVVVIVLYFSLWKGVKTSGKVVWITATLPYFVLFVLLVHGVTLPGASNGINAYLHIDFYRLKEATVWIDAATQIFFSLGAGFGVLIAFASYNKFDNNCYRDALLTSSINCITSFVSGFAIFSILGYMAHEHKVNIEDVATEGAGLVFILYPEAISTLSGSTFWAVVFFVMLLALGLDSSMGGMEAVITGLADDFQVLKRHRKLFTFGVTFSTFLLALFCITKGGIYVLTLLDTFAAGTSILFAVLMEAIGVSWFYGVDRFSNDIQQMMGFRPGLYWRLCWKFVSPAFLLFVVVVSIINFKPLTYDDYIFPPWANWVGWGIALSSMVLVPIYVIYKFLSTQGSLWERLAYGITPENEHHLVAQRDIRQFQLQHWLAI
From the text: as §1, §2

CYP1A2 = target: T3, CYP1A2 (Homo sapiens, UniProt P05177); settings: cited from earlier work
T3 sequence (P05177 1-516): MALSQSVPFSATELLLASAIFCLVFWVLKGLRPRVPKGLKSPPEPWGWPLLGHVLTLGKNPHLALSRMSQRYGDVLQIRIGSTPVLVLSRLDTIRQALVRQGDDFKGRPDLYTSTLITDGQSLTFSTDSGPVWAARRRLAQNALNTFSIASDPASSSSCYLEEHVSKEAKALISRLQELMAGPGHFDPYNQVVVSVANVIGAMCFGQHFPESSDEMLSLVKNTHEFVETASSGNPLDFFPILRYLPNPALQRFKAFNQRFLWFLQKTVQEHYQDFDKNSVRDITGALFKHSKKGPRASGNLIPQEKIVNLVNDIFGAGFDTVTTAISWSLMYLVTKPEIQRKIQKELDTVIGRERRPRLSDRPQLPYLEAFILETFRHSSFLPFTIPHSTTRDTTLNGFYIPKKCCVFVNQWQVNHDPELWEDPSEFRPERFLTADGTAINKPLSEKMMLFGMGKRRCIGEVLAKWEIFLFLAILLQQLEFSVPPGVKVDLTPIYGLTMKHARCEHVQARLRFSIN

CYP2D6 = CYP2D6 (Homo sapiens, UniProt P10635); settings: cited from earlier work
Chain of CYP2D6 (P10635 whole entry): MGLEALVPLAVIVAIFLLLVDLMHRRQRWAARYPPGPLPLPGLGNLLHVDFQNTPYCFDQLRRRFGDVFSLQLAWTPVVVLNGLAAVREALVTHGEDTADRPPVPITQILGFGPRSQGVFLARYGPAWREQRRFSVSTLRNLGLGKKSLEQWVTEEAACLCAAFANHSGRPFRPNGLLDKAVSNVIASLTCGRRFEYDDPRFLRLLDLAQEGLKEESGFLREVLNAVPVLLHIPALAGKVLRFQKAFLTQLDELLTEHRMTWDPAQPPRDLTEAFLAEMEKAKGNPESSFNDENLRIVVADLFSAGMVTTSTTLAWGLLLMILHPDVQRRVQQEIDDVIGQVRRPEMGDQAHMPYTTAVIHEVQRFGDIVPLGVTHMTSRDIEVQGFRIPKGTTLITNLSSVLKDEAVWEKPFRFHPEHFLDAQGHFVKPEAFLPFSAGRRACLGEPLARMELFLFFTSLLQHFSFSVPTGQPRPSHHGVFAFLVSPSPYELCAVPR

rat native NET [2] = target: T4, rat native NET (Rattus norvegicus, UniProt Q9WTR4); assay: [3H]-nisoxetine radioligand binding, rat cortical membranes; settings: mean (95% confidence intervals), read-out: Transporter Binding: pKi, NET (converted)
T4 construct: other: Rat cortical membranes; mean (95% confidence intervals)
T4 sequence (Q9WTR4 1-597): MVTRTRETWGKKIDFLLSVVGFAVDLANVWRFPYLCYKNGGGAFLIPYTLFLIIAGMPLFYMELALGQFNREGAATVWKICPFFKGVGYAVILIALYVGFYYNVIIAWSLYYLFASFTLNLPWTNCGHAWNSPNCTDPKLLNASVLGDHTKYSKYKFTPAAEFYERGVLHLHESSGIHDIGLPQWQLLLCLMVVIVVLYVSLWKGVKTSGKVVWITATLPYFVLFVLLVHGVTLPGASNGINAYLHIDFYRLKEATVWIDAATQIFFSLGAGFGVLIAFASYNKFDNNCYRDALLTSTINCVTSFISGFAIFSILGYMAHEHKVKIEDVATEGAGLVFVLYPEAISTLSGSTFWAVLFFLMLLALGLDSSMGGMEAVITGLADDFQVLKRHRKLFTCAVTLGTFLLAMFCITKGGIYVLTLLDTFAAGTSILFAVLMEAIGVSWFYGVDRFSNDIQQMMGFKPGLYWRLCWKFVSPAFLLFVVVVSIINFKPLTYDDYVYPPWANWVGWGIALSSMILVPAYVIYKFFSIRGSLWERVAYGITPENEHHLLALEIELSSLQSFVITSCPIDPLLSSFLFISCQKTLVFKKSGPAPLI
From the text: as §1, §2

T1 sequence (P31652 whole entry): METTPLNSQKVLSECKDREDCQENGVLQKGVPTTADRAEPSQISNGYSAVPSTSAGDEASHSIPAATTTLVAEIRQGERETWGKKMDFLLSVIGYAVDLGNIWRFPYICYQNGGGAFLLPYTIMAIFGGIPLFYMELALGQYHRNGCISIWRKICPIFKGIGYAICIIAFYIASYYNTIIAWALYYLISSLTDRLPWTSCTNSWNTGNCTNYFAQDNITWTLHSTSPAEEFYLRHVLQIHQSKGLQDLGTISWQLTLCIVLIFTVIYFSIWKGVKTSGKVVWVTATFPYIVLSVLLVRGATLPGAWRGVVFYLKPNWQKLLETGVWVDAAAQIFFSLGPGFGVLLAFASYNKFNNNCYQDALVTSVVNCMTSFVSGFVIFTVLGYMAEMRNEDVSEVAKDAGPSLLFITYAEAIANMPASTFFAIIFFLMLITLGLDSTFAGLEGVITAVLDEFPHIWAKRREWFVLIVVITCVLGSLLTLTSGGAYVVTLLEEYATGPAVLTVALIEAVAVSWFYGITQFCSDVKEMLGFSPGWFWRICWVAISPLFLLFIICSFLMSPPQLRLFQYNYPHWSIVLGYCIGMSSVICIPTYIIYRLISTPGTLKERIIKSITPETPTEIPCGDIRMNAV

SMILES: Fc1cc(F)c(OCc2ccccc2C2CCNCC2)c(F)c1 [4-[2-(2,4,6-trifluorophenoxymethyl)phenyl]piperidine]
- EC50 (SERT; projected from rat, accounting for species differences in plasma protein binding): 74.4 nM
- keo (first-order equilibration rate constant), SERT (SERT; rat, estimate (% CV)): 11.0 (86) hr^−1
- apparent functional selectivity for NET over SERT (rat native NET [1]): 10 fold
- higher potency for inhibition of NET over SERT (human recombinant NET): 4 fold
- reduction of metabolism by chemical inhibition of CYP1A2 (CYP1A2): 25%
- reduction of metabolism by chemical inhibition of CYP2D6 (CYP2D6): 7%
- Ki (rat native NET [2]): 2 nM
